Tests used:
[1] = tested on: docetaxel resistant cells; conditions: cited from earlier work
[2] = tested on: patients treated with docetaxel; conditions: from the beginning or in a secondary way; cited from earlier work
parental IGR-CaP1 cells = assay: WST1 cell proliferation assay, cytotoxic effect of docetaxel, parental cells; type: cell-based, human; conditions: docetaxel 1.25 nM to 50 nM, 72 h
From the text: (§1) The data represent the mean of three different experiments, the error bars represent the SEM.
(§2) Several clonally-derived cells were obtained from the parental IGR-CaP1 cells by limit dilutions.

[3] = tested on: 3A11 clone (clonally-derived IGR-CaP1 cells); assay: WST1 cell proliferation assay, cytotoxic effect of docetaxel, clone 3A11; type: cell-based, human
From the text: as §1, §2

[4] = tested on: breast cancer metastatic tumours; conditions: cited from earlier work
[5] = tested on: 3B1 clone (clonally-derived IGR-CaP1 cells); assay: WST1 cell proliferation assay, cytotoxic effect of docetaxel, clone 3B1; type: cell-based, human
From the text: as §1, §2

SMILES | apoptosis [1] | expression of clusterin [1] | patients who develop a resistance to the chemotherapy [2] | cell proliferation (WST1) (parental IGR-CaP1 cells) | effect on proliferation compared to parental IGR-CaP1 cells ([3]; 3A11 clone vs parental, p<0.001) | cell proliferation (WST1) ([3]; 3A11 clone, docetaxel 1.25 nM to 50 nM, 72 h) | metastatic tumours that respond [4] | effect on proliferation compared to parental IGR-CaP1 cells ([5]; 3B1 clone vs parental, p<0.001) | cell proliferation (WST1) ([5]; 3B1 clone, docetaxel 1.25 nM to 50 nM, 72 h)
Oc1ccc(C=Cc2cc(O)cc(O)c2)cc1 [resveratrol] | increase of apoptosis | decreased expression of clusterin | – | – | – | – | – | – | –
CC(=O)O[C@@]12CO[C@@H]1C[C@H](O)[C@@]1(C)C(=O)[C@H](O)C3=C(C)[C@@H](OC(=O)[C@H](O)[C@@H](NC(=O)OC(C)(C)C)c4ccccc4)C[C@@](O)([C@@H](OC(=O)c4ccccc4)[C@H]21)C3(C)C [docetaxel] | – | – | almost half of the patients | decreased cell proliferation in a dose-dependent manner | significantly lower extent | decreased cell proliferation in a dose-dependent manner | 30 to 50% | significantly lower extent | decreased cell proliferation in a dose-dependent manner

Reference: US20110177970A1, “METHODS FOR PREDICTING OR MONITORING WHETHER A PATIENT AFFECTED BY A CANCER IS RESPONSIVE TO A TREATMENT WITH A MOLECULE OF THE TAXOID FAMILY” (Inserm (Institut National de la Sante et de la Recherche …, priority 2008, published 2011)
